Measurements as given in patent US20120295291A1, “Method for Determining the Risk of Clopidogrel Resistance” (SIEMENS HEALTHCARE DIAGNOSTICS PRODUCTS GMBH, priority 2011, published 2012).
Where two headings read alike, the source gives them in different places.

System: thrombocytes (thrombocyte activity; ADP receptor P2Y12)
Conditions: for patients studied clopidogrel-resistant (closure time below cut-off after intake of clopidogrel): INNOVANCE PFA P2Y cartridges, after 300 or 600 mg clopidogrel loading dose, cut-off 106 s

**Q.** With `COC(=O)[C@H](c1ccccc1Cl)N1CCc2sccc2C1` [clopidogrel, methyl (S)-α-(2-chlorophenyl)-6,7-dihydrothieno[3,2-c]pyridine-5(4H)-acetate] as the molecule, how does the “relative risk of patient not responding to clopidogrel” value (Col/EPI closure time prior to intake 140 s (3.2% citrated blood), response by INNOVANCE PFA P2Y after intake in 3.8% citrated whole blood, p<0.0001) read?
**A.** 2.64

**Q.** And the “relative risk of patient not responding to clopidogrel” value (Col/EPI closure time prior to intake ≦140 s vs >140 s, 3.2% citrated whole blood, p<0.004)?
**A.** 1.78

**Q.** And the “patients studied clopidogrel-resistant (closure time below cut-off after intake of clopidogrel)” value (3.2% citrated whole blood)?
**A.** 45.8%

**Q.** What about the “patients studied clopidogrel-resistant (closure time below cut-off after intake of clopidogrel)” value (3.8% citrated whole blood) of the same molecule?
**A.** 37.5%

**Q.** And the “relative risk of patient not responding to clopidogrel” value (INNOVANCE PFA P2Y closure time prior to intake ≦59 s vs >59 s, 3.8% citrated whole blood, p<0.002)?
**A.** 1.98

**Q.** And the “relative risk of patient not responding to clopidogrel” value (INNOVANCE PFA P2Y closure time prior to intake ≦60 s vs >60 s, 3.2% citrated whole blood, p<0.02)?
**A.** 1.61

**Q.** And the “relative risk of patient not responding to clopidogrel” value (patients undergoing ASA therapy, Col/ADP closure time prior to intake ≦91 s vs >91 s, 3.2% citrated whole blood, p=0.06)?
**A.** 1.47
